The target in series [1] is T1, N-formyl peptide receptor 2 (Homo sapiens, UniProt P25090).
T1 sequence (P25090 whole entry): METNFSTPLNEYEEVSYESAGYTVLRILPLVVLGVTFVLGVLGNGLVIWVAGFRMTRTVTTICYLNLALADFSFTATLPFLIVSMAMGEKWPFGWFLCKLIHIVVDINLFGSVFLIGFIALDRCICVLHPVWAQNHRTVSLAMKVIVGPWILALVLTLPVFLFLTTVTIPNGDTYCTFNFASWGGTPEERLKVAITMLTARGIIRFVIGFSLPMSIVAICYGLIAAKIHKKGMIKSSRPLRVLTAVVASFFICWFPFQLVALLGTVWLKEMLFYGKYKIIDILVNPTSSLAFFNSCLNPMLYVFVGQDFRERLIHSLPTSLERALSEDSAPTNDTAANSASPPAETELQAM
Description: Agonist activity at human FPR2 expressed in human HL60 cells assessed as induction of calcium mobilization measured every 5 secs for 240 secs by Fluo-4-AM dye based fluorometric method. Format: functional, cell-based. (In general: A change in cytosolic calcium serves as a functional read-out for many receptors and channels.)

A further series has as its target T2, fMet-Leu-Phe receptor (Homo sapiens, UniProt P21462).
T2 sequence (P21462 whole entry): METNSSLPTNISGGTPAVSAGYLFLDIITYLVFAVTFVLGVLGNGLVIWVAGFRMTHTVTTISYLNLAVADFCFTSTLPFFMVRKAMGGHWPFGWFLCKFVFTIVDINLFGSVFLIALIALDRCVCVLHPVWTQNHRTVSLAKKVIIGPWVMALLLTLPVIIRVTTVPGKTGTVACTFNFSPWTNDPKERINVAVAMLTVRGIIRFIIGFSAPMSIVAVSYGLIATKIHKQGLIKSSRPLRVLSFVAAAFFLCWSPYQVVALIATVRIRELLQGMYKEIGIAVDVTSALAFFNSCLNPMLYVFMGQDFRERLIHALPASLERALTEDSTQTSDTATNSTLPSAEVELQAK
Put plainly: Agonist activity at human FPR1 expressed in human HL60 cells assessed as induction of calcium mobilization measured every 5 secs for 240 secs by Fluo-4-AM dye based fluorometric method. Format: functional, cell-based.

Series [2] has as its target T1, N-formyl peptide receptor 2. Description: Agonist activity at FPR2 in human neutrophils assessed as induction of calcium mobilization measured every 5 secs for 240 secs by Fluo-4-AM dye based fluorometric method. Format: functional.
The nature of series [3]: Metabolic stability in rat liver microsomes assessed as parent compound remaining at 10 uM preincubated for 10 mins followed by NADPH addition measured after 30 mins by liquid chromatographic method. Format: ADME, microsome. As to conditions: 0.5 h; call rule not given here.
In series [4] the target is T3, N-formyl peptide receptor 2 (Homo sapiens) (UniProt P25090).
T3 sequence (whole entry): T1 sequence (P25090 whole entry)
Description: Agonist activity at human FPR2 expressed in human HL60 cells assessed as induction of calcium mobilization measured every 5 secs for 240 secs by Fluo-4-AM dye based fluorometric method relative to WKYMVM. Format: functional, cell-based.

In series [5] the target is T4, fMet-Leu-Phe receptor (Homo sapiens) (UniProt P21462).
T4 sequence (whole entry): T2 sequence (P21462 whole entry)
Description: Agonist activity at human FPR1 expressed in human HL60 cells assessed as induction of calcium mobilization measured every 5 secs for 240 secs by Fluo-4-AM dye based fluorometric method relative to fMLF. Format: functional, cell-based.

Series [6] addresses T3, N-formyl peptide receptor 2 (Homo sapiens). Description: Agonist activity at FPR2 in human neutrophils assessed as induction of calcium mobilization measured every 5 secs for 240 secs by Fluo-4-AM dye based fluorometric method relative to fMLF.
Series [7] is described as follows: Half life in rat liver microsomes at 10 uM preincubated for 10 mins followed by NADPH addition by liquid chromatographic method. Format: ADME, microsome. (Liver microsomes are a subcellular fraction often used to study metabolism.)
The nature of series [8]: Intrinsic clearance in rat liver microsomes at 10 uM preincubated for 10 mins followed by NADPH addition by liquid chromatographic method. In kind it is ADME, microsome.

The record followed here is ChEMBL document CHEMBL4130539, “Novel ureidopropanamide based N-formyl peptide receptor 2 (FPR2) agonists with potential application for central nervous system disorders characterized by neuroinflammation” (Eur J Med Chem, 2017).

A word on the EC50: it is the concentration needed to bring the measured effect to its halfway point.

Each structure is given as a SMILES string.

On to `COc1ccc(NC(=O)N[C@@H](Cc2c[nH]c3ccccc23)C(=O)NCC2(c3ccccc3)CC2)cc1`, for which the figures for the EC50 (in series [1] (read-out: EC50); on fMet-Leu-Phe receptor (read-out: EC50); in series [2] (read-out: EC50)) were 110 nM, 950 nM and 1400 nM, respectively. Moreover, the Stability in series [3] is on record as 3%.
With `O=C(Nc1ccccc1)N[C@@H](Cc1c[nH]c2ccccc12)C(=O)NCC1(c2ccccc2)CC1`, the EC50 in series [1] (read-out: EC50) is 6700 nM; at fMet-Leu-Phe receptor (read-out: EC50), 2400 nM; in [2] (read-out: EC50), 1500 nM. The Stability in [3] is given as 5%.
Consider `COc1ccc(NC(=O)N[C@H](Cc2ccc(C#N)cc2)C(=O)NCC2(c3ccc(F)c(Cl)c3)CC2)cc1`, for which the concentration giving a half-maximal response (EC50) in series [1] (read-out: EC50) came to 1800 nM; on fMet-Leu-Phe receptor (read-out: EC50), 630 nM; in series [2] (read-out: EC50), 730 nM. In addition, the Efficacy in series [4] was found to be 60%; in series [5], 100%; in series [6] it was 115%. For the same molecule, in [3], the Stability is reported as 5%.
As for `COc1ccc(NC(=O)N[C@@H](Cc2ccc(C#N)cc2)C(=O)NCC2(c3ccc(C)c(F)c3)CC2)cc1`, the concentration for a half-maximal effect (EC50) in series [1] (read-out: EC50) amounted to 16300 nM; on fMet-Leu-Phe receptor (read-out: EC50), 10300 nM; in series [2] (read-out: EC50) it was 1700 nM. For the same molecule, the Stability in [3] turned out to be 8%.
In the case of `O=C(Nc1ccc([N+](=O)[O-])cc1)N[C@@H](Cc1cccnc1)C(=O)NCC1(c2ccccc2)CC1`, the EC50 in series [1] (read-out: EC50) is 6400 nM; at fMet-Leu-Phe receptor (read-out: EC50) it was 850 nM; in series [2] (read-out: EC50), 730 nM. Further, the Efficacy in series [4] was determined as 60%; in series [5], 125%; in series [6], 65%. Besides, in series [3], the Stability was found to be 51%. In [7], this molecule had a t1/2 of 1.83 h. Further, the “Microsomal intrinsic clearance (CLint)” value in [8] came out at 6.3 µL/min/mg.
In the case of `COc1ccc(NC(=O)N[C@H](Cc2c[nH]c3ccccc23)C(=O)NCC2(c3ccccc3)CC2)cc1`, the EC50 in [1] (read-out: EC50) is 6500 nM; at fMet-Leu-Phe receptor, “Not Active”; in series [2], “Not Active”. The Stability in [3] is recorded as 4%.
Turning to `Cc1ccc(C2(CNC(=O)[C@H](Cc3ccc(C#N)cc3)NC(=O)Nc3ccc(F)cc3)CC2)cc1F`, the EC50 in series [1] (read-out: EC50) was found to be 3000 nM; on fMet-Leu-Phe receptor (read-out: EC50) it was 5900 nM; in series [2] (read-out: EC50), 1700 nM. Moreover, in series [3], the Stability was determined as 39%.
`N#Cc1ccc(C[C@@H](NC(=O)Nc2ccc([N+](=O)[O-])cc2)C(=O)NCC2(c3ccccc3)CC2)cc1`: the EC50 in series [1] (read-out: EC50) amounted to 1500 nM; at fMet-Leu-Phe receptor (read-out: EC50) it was 4700 nM; in series [2] (read-out: EC50) it was 4100 nM. Moreover, the results for the Efficacy in series [4], in [5] and in [6] were 90%, 75% and 150%, respectively. The Stability in [3] amounted to 38%. Besides, the t1/2 in series [7] worked out at 1.58 h. The “Microsomal intrinsic clearance (CLint)” value in series [8] stood at 7.29 µL/min/mg.
Consider `O=C(Nc1ccc(F)cc1)N[C@H](Cc1c[nH]c2ccccc12)C(=O)NCC1(c2ccccc2)CC1`, for which the EC50 entry (in series [1]; on fMet-Leu-Phe receptor; in series [2]) was “Not Active” each time.
With `Cc1ccc(C2(CNC(=O)[C@@H](Cc3ccc(C#N)cc3)NC(=O)Nc3ccc(F)cc3)CC2)cc1F`, the EC50 entry (in [1]; at fMet-Leu-Phe receptor; in [2]) was “Not Active” each time. Besides, the Stability in series [3] was 37%. Also, in series [7], the t1/2 turned out to be 0.983 h. Also, the “Microsomal intrinsic clearance (CLint)” value in [8] turned out to be 10.04 µL/min/mg.
As to `N#Cc1ccc(C[C@H](NC(=O)Nc2ccc(F)cc2)C(=O)NCC2(c3ccc(OC(F)(F)F)cc3)CC2)cc1`, the EC50 entry (in series [1]; at fMet-Leu-Phe receptor; in [2]) was “Not Active” throughout. For the same molecule, the Stability in [3] turned out to be 80%.
On to `N#Cc1ccc(C[C@@H](NC(=O)Nc2ccc(F)cc2)C(=O)NCC2(c3ccc(OC(F)(F)F)cc3)CC2)cc1`, for which the EC50 entry (in series [1]; at fMet-Leu-Phe receptor; in [2]) was “Not Active” each time. For the same molecule, in series [3], the Stability was 88%.
Consider `COc1ccc(NC(=O)N[C@H](Cc2ccc(C#N)cc2)C(=O)NCC2(c3ccc(OC(F)(F)F)cc3)CC2)cc1`, for which the 50% effective concentration (EC50) result (in [1]; at fMet-Leu-Phe receptor; in series [2]) was “Not Active” in each case. Moreover, the Stability in series [3] was determined as 43%.
As for `COc1ccc(NC(=O)N[C@@H](Cc2ccc(C#N)cc2)C(=O)NCC2(c3ccc(OC(F)(F)F)cc3)CC2)cc1`, the 50% effective concentration (EC50) entry (in [1]; on fMet-Leu-Phe receptor; in [2]) was “Not Active” each time. Besides, the Stability in [3] was 51%.
Turning to `O=C(Nc1ccc(F)cc1)N[C@@H](Cc1c[nH]c2ccccc12)C(=O)NCC1(c2ccccc2)CC1`, the EC50 in [1] (read-out: EC50) is 2000 nM; on fMet-Leu-Phe receptor (read-out: EC50), 18800 nM; in series [2], “Not Active”. For the same molecule, in series [3], the Stability worked out at 4%.
Regarding `N#Cc1ccc(C[C@@H](NC(=O)Nc2ccc(F)cc2)C(=O)NCC2(c3ccc(F)c(Cl)c3)CC2)cc1`, the results for the EC50 (in series [1] (read-out: EC50); at fMet-Leu-Phe receptor (read-out: EC50); in [2] (read-out: EC50)) were 300 nM, 5400 nM and 1300 nM, respectively. Further, the Efficacy in [4] was found to be 90%; in series [5], 55%; in [6] it was 95%. For the same molecule, the Stability in series [3] is recorded as 20%. For the same molecule, the t1/2 in [7] turned out to be 0.783 h. The “Microsomal intrinsic clearance (CLint)” value in series [8] came to 14.7 µL/min/mg.
On to `COc1ccc(NC(=O)N[C@H](Cc2ccc(C#N)cc2)C(=O)NCC2(c3ccc(C)c(F)c3)CC2)cc1`, for which the EC50 entry (in series [1]; on fMet-Leu-Phe receptor; in series [2]) was “Not Active” in each case. Besides, the Stability in [3] amounted to 10%.
Consider `COc1ccc(NC(=O)N[C@@H](Cc2ccc(C#N)cc2)C(=O)NCC2(c3ccc(F)c(Cl)c3)CC2)cc1`, for which the 50% effective concentration (EC50) was found to be 3400 nM in [1] (read-out: EC50), 450 nM at fMet-Leu-Phe receptor (read-out: EC50) and 330 nM in series [2] (read-out: EC50). For the same molecule, the figures for the Efficacy in [4], in series [5] and in series [6] were 60%, 115% and 155%, respectively. Besides, the Stability in series [3] is given as 10%.
Consider `O=C(Nc1ccc([N+](=O)[O-])cc1)N[C@H](Cc1c[nH]c2ccccc12)C(=O)NCC1(c2ccccc2)CC1`, for which the Stability in series [3] came to 15%.
On to `O=C(Nc1ccccc1)N[C@H](Cc1c[nH]c2ccccc12)C(=O)NCC1(c2ccccc2)CC1`, for which the EC50 result (in [1]; at fMet-Leu-Phe receptor; in series [2]) was “Not Active” throughout. The Stability in series [3] is 4%.
